Literature values as cited in patent publication US20060233843A1, “Treatment of psychosis with a muscarinic m1 receptor ectopic activator” (priority 2003, published 2006).

Biological target: T1, M1 receptor, residue 381 mutated from tyrosine to alanine (Homo sapiens, UniProt P11229, Y381A)
T1 sequence (P11229 1-460 Y381A): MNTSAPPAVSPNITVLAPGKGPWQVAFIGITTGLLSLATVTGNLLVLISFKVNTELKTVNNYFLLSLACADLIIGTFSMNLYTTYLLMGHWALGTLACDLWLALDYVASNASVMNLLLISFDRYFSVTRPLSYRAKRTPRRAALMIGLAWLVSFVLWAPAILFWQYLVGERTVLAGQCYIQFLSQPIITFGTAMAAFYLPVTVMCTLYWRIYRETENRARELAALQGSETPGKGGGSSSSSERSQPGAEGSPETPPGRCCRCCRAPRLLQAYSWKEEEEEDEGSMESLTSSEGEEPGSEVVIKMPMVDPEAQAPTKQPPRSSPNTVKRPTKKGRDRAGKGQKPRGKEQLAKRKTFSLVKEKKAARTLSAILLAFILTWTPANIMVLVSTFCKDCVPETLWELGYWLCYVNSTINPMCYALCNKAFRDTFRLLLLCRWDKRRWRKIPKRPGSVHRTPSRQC
Settings: M1 receptor Y381A mutant versus wild type

CCCCC1CCN(CCCC(=O)c2ccccc2C)CC1 [AC-42]
effect of mutation of residue 381 from tyrosine to alanine on pharmacology: not affecting

Clc1ccc2c(c1)N=C(N1CCNCC1)c1ccccc1N2 [N-desmethylclozapine, Desmethylclozapine]
increase of ectopic agonist potency by mutation of residue 381 from tyrosine to alanine: 8 fold
